Where two headings read alike, the source gives them in different places.
Assays:
bovine trypsin [1] = target: T1, bovine trypsin (Bos taurus, UniProt P00760); test: Inactivation rate of bovine trypsin, incubation method; type: biochemical; settings: Table II; 0.13 μM trypsin, 0.25-42 μM inhibitor, 80 mM Hepes pH 7.5, 1 mM CaCl2, 8% DMSO, 25° C.; NI = no inhibition
T1 sequence (P00760 24-246): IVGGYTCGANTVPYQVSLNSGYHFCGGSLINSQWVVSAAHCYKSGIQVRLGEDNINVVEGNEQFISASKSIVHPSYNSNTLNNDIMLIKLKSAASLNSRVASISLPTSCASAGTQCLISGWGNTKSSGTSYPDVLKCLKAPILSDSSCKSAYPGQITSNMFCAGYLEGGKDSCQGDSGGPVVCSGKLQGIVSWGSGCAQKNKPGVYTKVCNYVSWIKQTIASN
In short: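 Incubation method: trypsin pre-incubated with inhibitor (0.25-42 μM) at 25° C in 80 mM Hepes, 1 mM CaCl2, pH 7.5, 8% DMSO; aliquots withdrawn over time for residual activity on Z-Arg-SBzl thioester with DTNB or 4,4'-dithiodipyridine. Pseudo-first-order kobs from ln vt/vo versus time.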

human thrombin = target: T2, human thrombin (Homo sapiens, UniProt P00734); type: biochemical; settings: 25° C., NI = no inhibition
T2 construct: bovine trypsin, human thrombin
In short: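 Irreversible inactivation followed by incubation method at 25 °C: 0.07 μM thrombin with 0.25–42 μM inhibitor in 80 mM Hepes pH 7.5, 428 mM NaCl, 8% DMSO. Residual activity of withdrawn aliquots measured with thioester or 4-nitroanilide substrates; kobs from pseudo-first-order fits.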

factor Xa = target: T3, factor Xa (Homo sapiens, UniProt P00742); test: Inactivation rate of factor Xa, incubation method; type: biochemical; settings: Table II; 0.42 μM factor Xa, 66 μM inhibitor, 80 mM Hepes pH 7.5, 428 mM NaCl, 8% DMSO, 25° C.
T3 construct: human thrombin, factor Xa, plasmin
Method: (§1) Inactivation rates of serine proteases by aryl diesters of peptidyl derivatives of α-aminoalkylphosphonates were measured by the incubation method. An aliquot of inhibitor (25 or 50 μl) in Me2 SO was added to a buffered enzyme solution (0.01-2.3 μM) to initiate the inactivation. Aliquots (50 μl) were withdrawn at various intervals and the residual enzymatic activity was measured. Me2 SO concentration in the reaction mixture was 8-12% (v/v). A 0.1 M HEPES, 0.01 M CaCl2, pH 7.5 buffer was utilized for trypsin and trypsin-like enzymes. A 0.1 M HEPES, 0.5 M NaCl, pH 7.5, was utilized for the other serine proteases. Peptide thioesters or peptide nitroanilides with the appropriate sequences were used as substrates for various serine proteases. All peptide thioesters hydrolysis rates were measured with the assay mixture containing 4,4'-dithiodipyridine {ε324 =19800 M^-1 cm^-1; Grasetti & Murray, Arch. Biochem. Biophys. 1967, 119, 41-48}. Peptide 4-nitroanilide hydrolysis was measured at 410 nm {ε410 =8800 M^-1 cm^-1; Erlanger et al., Arch. Biochem. Biophys. 1961, 95, 271-278}. First order inactivation rate constants (Kobs) were obtained from plots of In vt /vo vs time, and the correlation coefficients were greater then 0.98.
^a Enzyme was incubated with the inhibitor in 250 μL of the proper
NaCl, 0.8 mM Mes, 9% glycerol and 8% DMSO; 0.42 μM factor Xa, 66 μM
inhibitor in an 80 mM Hepes, pH 7.5 buffer containing 428 mM NaCl and 8%
DMSO. Aliquots of 25 μL were withdrawn at various intervals and the
(§2) residual enzymatic activity was measured as described in experimental
(§3) section. The kobs values were calculated from pseudofirst-order

plasmin = target: T4, plasmin (Homo sapiens, UniProt P00747); test: Inactivation rate of plasmin, incubation method; type: biochemical; settings: Table III; for kobs /[I] plasmin: enzyme 0.06-0.5 μM, inhibitor 0.25-42 μM, 9% DMSO, 25° C., NI = no inhibition
T4 construct: factor Xa, plasmin, and urokinase
Method: as §1
(§4) ^a Enzyme (0.06-0.5 μM) was incubated with the inhibitor (0.25-42
(§5) μM) in 250 μL of the proper buffer containing 9% DMSO at 25°
(§6) C. The final inhibition reaction mixtures are given in the footnote to
(§7) Table 1. Aliquots of 25 μL were withdrawn at various intervals and the
as §2, §3
^b Inhibitor concentration of 0.24 mM.

urokinase = urokinase (Homo sapiens, UniProt P00749); test: Inactivation rate of urokinase, incubation method; type: biochemical; settings: Table III; enzyme 0.06-0.5 μM, inhibitor 0.25-42 μM, 9% DMSO, 25° C.; NI = no inhibition
Method: as §1, §4, §5, §6, §7, §2, §3

mast cell tryptase = mast cell tryptase (Homo sapiens, UniProt Q15661); test: Inactivation rate of mast cell tryptase, incubation method; type: biochemical; settings: Table III; enzyme 0.06-0.5 μM, inhibitor 0.25-42 μM, 9% DMSO, 25° C.; NI = no inhibition
In short: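 Incubation method at 25 °C: 0.07 μM tryptase with 20–66 μM inhibitor in Hepes pH 7.5 containing heparin, glycerol and DMSO. Aliquots were withdrawn at intervals for residual activity on Z-Arg-SBzl or Z-Lys-SBzl with DTNB. Pseudo-first-order kobs came from ln(vt/v0) versus time.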

bovine trypsin [2] = target: T1, bovine trypsin; test: Inactivation rate of bovine trypsin, incubation method; type: biochemical; settings: Table III; enzyme 0.06-0.5 μM, inhibitor 0.25-42 μM, 9% DMSO, 25° C.; NI = no inhibition
[3] = Hydrolysis (stability) in human plasma; type: in vitro ADME
Excerpt: Furthermore, they show excellent stability in human plasma. For example Suc-Val-Pro-Phe^P (OPh)2 has a hydrolysis half-time in human plasma of about 20 hrs. […] Thus they can be used under a variety of conditions. Phosphonates have the additional advantage of being very stable in plasma and will have a high effectiveness in vivo due to their long lifetimes.

[4] = Table II, 0.07 μM thrombin, 0.25-42 μM inhibitor, 80 mM Hepes pH 7.5, 428 mM NaCl, 8% DMSO
[5] = Table III, enzyme 0.06-0.5 μM, inhibitor 0.25-42 μM, 9% DMSO

T3 sequence (P00742 235-488 limits assumed): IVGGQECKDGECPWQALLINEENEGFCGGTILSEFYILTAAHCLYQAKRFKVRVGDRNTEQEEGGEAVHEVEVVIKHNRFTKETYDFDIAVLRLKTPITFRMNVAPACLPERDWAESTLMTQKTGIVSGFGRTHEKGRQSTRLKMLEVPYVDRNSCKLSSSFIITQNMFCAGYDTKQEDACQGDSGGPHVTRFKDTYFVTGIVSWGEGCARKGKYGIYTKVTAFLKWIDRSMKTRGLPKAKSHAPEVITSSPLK
T3 sequence (P00742 41-179 partner limits assumed): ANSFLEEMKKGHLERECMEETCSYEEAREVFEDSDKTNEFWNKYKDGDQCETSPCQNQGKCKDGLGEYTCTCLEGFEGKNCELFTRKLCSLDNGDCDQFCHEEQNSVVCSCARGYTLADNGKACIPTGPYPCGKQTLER
Sequence of mast cell tryptase (Q15661 31-275): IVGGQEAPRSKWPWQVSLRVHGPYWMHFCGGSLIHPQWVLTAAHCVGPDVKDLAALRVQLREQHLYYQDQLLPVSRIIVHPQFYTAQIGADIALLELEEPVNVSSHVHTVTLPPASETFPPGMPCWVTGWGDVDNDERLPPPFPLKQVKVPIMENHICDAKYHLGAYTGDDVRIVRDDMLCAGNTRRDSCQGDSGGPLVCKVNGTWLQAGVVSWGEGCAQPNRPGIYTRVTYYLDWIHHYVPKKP
T4 sequence (P00747 581-810 limits assumed, species assumed): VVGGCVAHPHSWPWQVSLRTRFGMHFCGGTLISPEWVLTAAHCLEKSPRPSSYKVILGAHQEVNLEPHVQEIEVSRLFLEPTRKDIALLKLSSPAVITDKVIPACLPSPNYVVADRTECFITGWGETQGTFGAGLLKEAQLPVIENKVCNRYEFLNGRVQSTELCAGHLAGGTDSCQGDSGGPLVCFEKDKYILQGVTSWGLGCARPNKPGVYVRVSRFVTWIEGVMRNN
T4 sequence (P00747 97-580 partner limits assumed, species assumed): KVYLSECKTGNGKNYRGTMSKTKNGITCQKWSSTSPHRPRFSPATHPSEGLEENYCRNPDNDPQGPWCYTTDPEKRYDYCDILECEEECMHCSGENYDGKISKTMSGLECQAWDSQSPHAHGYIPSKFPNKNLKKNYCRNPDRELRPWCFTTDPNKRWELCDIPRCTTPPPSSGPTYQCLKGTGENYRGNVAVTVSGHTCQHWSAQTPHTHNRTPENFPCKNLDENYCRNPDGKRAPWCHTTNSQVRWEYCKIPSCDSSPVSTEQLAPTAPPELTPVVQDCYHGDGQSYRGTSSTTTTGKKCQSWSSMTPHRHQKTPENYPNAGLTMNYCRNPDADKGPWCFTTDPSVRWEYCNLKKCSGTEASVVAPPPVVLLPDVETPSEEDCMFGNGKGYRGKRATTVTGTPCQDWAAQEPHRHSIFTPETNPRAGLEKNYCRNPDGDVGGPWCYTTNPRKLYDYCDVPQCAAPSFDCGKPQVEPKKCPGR

For CC(C)(C)OC(=O)NC(Cc1ccccc1)C(=O)NCC(=O)NC(c1ccc(C(=N)N)cc1)P(=O)(Oc1ccccc1)Oc1ccccc1 (mixture of isomers) [Boc--D--Phe--Gly-(4-AmPhGly)^P (OPh)2], the “kobs /[I] bovine trypsin” value (bovine trypsin [1]) was 6,620 ± 835 M^-1 s^-1, the “kobs /[I] human thrombin” value (human thrombin; [4]) was 2,225 ± 106 M^-1 s^-1 and the “kobs /[I] factor Xa” value (factor Xa) was 2.8 ± 0 M⁻¹ s⁻¹.

For NCCCCCC(NC(=O)[C@@H]1CCCN1C(=O)CC(c1ccccc1)c1ccccc1)P(=O)(Oc1ccccc1)Oc1ccccc1 (stereo partly drawn) [3,3-Diphenylpropanoyl-Pro-HomoLys^P (OPh)2], the “kobs /[I] human thrombin” value (human thrombin; [5]) was 224 ± 8 M⁻¹ s⁻¹, the “% Inh plasmin” value (plasmin; inhibitor concentration of 0.24 mM) was 50% and the “kobs /[I] urokinase” value (urokinase) was 2.1 ± 0.2 M⁻¹ s⁻¹. The “kobs /[I] mast cell tryptase” value (mast cell tryptase) was 1.1 ± 0.0 M⁻¹ s⁻¹ and the “kobs /[I] bovine trypsin” value (bovine trypsin [2]) was 16 ± 1 M⁻¹ s⁻¹.

With N=C(N)c1ccc(C(NC(=O)CNC(=O)C(CCC(=O)O)NC(=O)OCc2ccccc2)P(=O)(Oc2ccccc2)Oc2ccccc2)cc1 (mixture of isomers) [Cbz--Glu--Gly-(4-AmPhGly)^P (OPh)2] the “kobs /[I] bovine trypsin” value (bovine trypsin [1]) was 70 ± 5 M⁻¹ s⁻¹, the “kobs /[I] human thrombin” value (human thrombin; [4]) was 46 ± 5 M⁻¹ s⁻¹ and the “kobs /[I] factor Xa” value (factor Xa) was 1.4 ± 0.1 M⁻¹ s⁻¹.

For CC(C)(C)OC(=O)NC(CO)C(=O)NC(c1ccc(C(=N)N)cc1)P(=O)(Oc1ccccc1)Oc1ccccc1 (mixture of isomers) [Boc--Ser-(4-AmPhGly)^P (OPh)2], the “kobs /[I] bovine trypsin” value (bovine trypsin [1]) was 20 ± 1 M⁻¹ s⁻¹, the “kobs /[I] human thrombin” value (human thrombin; [4]) was 31 ± 2 M⁻¹ s⁻¹ and the “kobs /[I] factor Xa” value (factor Xa) was 3.5 ± 0.4 M⁻¹ s⁻¹.

For CC(C)[C@H](NC(=O)CCC(=O)O)C(=O)N1CCC[C@H]1C(=O)NC(Cc1ccccc1)P(=O)(Oc1ccccc1)Oc1ccccc1 (stereo partly drawn) [Suc-Val-Pro-Phe^P (OPh)2], the “hydrolysis half-time in human plasma” value [3] was “about 20 hrs”.

With Cl.NCCCCC(NC(=O)OCc1ccccc1)P(=O)(Oc1ccccc1)Oc1ccccc1 (stereo not drawn) [Cbz--Lys^P (OPh)2, Diphenyl N-(N-Benzyloxycarbonyl)amino(4-aminobutyl)methanephosphonate Hydrochloride] the “kobs /[I] human thrombin” value (human thrombin; [5]) was 17 M⁻¹ s⁻¹, the “kobs /[I] plasmin” value (plasmin) was 8.2 ± 0.4 M⁻¹ s⁻¹ and the “kobs /[I] urokinase” value (urokinase) was 15 ± 2 M⁻¹ s⁻¹. For the same molecule, the “kobs /[I] mast cell tryptase” value (mast cell tryptase) was 17 ± 1 M⁻¹ s⁻¹ and the “kobs /[I] bovine trypsin” value (bovine trypsin [2]) was 6,235 M^-1 s^-1.

With CC(C)CC(NC(=O)OC(C)(C)C)C(=O)NC(CC(=O)OC(C)(C)C)C(=O)N1CCCC1C(=O)NC(c1ccc(C(=N)N)cc1)P(=O)(Oc1ccccc1)Oc1ccccc1 (mixture of isomers) [Boc--Leu--Asp(O-t-Bu)--Pro-(4-AmPhGly)^P (OPh)2] the “kobs /[I] bovine trypsin” value (bovine trypsin [1]) was 670 ± 53 M⁻¹ s⁻¹, the “kobs /[I] human thrombin” value (human thrombin; [4]) was 502 ± 21 M⁻¹ s⁻¹ and the “kobs /[I] factor Xa” value (factor Xa) was 8 ± 1 M⁻¹ s⁻¹.

For Cl.NCCCCCC(NC(=O)[C@@H]1CCCN1C(=O)c1ccccc1Oc1ccccc1)P(=O)(Oc1ccccc1)Oc1ccccc1 (stereo partly drawn) [2-Phenoxybenzoyl-Pro-HomoLys^P (OPh)2, Diphenyl 1-(N-(2-Phenoxybenzoylprolyl)amino)-6-aminohexanephosphonate Hydrochloride], the “kobs /[I] human thrombin” value (human thrombin; [5]) was 57 ± 5 M⁻¹ s⁻¹, the “kobs /[I] plasmin” value (plasmin) was 3.6 ± 0.4 M⁻¹ s⁻¹ and the “kobs /[I] urokinase” value (urokinase) was 24 ± 4 M⁻¹ s⁻¹. For the same molecule, the “kobs /[I] mast cell tryptase” value (mast cell tryptase) was 7.7 ± 0.3 M⁻¹ s⁻¹ and the “kobs /[I] bovine trypsin” value (bovine trypsin [2]) was 69 ± 13 M⁻¹ s⁻¹.

In the case of CC(C)CC(NC(=O)OC(C)(C)C)C(=O)NCC(=O)NC(c1ccc(C(=N)N)cc1)P(=O)(Oc1ccccc1)Oc1ccccc1 (mixture of isomers) [Boc--D--Leu--Gly-(4-AmPhGly)^P (OPh)2], the “kobs /[I] bovine trypsin” value (bovine trypsin [1]) is reported as 2,960 ± 300 M^-1 s^-1, the “kobs /[I] human thrombin” value (human thrombin; [4]) is reported as 1,187 ± 76 M^-1 s^-1 and the “kobs /[I] factor Xa” value (factor Xa) is reported as 10 ± 0.4 M⁻¹ s⁻¹.

For CC(C)CC(N)C(=O)NC(CC(=O)O)C(=O)N1CCCC1C(=O)NC(c1ccc(C(=N)N)cc1)P(=O)(Oc1ccccc1)Oc1ccccc1 (mixture of isomers) [Leu--Asp--Pro-(4-AmPhGly)^P (OPh)2], the “kobs /[I] bovine trypsin” value (bovine trypsin [1]) was 204 ± 19 M⁻¹ s⁻¹, the “kobs /[I] human thrombin” value (human thrombin; [4]) was 65 ± 1 M⁻¹ s⁻¹ and the “kobs /[I] factor Xa” value (factor Xa) was 1.3 ± 0.2 M⁻¹ s⁻¹.

With NCCCCC(NC(=O)[C@@H]1CCCN1C(=O)CC(c1ccccc1)c1ccccc1)P(=O)(Oc1ccccc1)Oc1ccccc1 (stereo partly drawn) [3,3-Diphenylpropanoyl-Pro--Lys^P (OPh)2] the “kobs /[I] human thrombin” value (human thrombin; [5]) was 27,450 ± 803 M^-1 s^-1, the “kobs /[I] plasmin” value (plasmin) was 7.0 ± 0.2 M⁻¹ s⁻¹ and the “kobs /[I] urokinase” value (urokinase) was 1.5 ± 0.0 M⁻¹ s⁻¹. The “kobs /[I] mast cell tryptase” value (mast cell tryptase) was 74 ± 9 M⁻¹ s⁻¹ and the “kobs /[I] bovine trypsin” value (bovine trypsin [2]) was 14,447 ± 905 M^-1 s^-1.

For CC(C)CC(NC(=O)C(Cc1ccccc1)NC(=O)OC(C)(C)C)C(=O)NC(c1ccc(C(=N)N)cc1)P(=O)(Oc1ccccc1)Oc1ccccc1 (mixture of isomers) [Boc--D--Phe--Leu-(4-AmPhGly)^P (OPh)2], the “kobs /[I] bovine trypsin” value (bovine trypsin [1]) was 24 ± 2 M⁻¹ s⁻¹, the “kobs /[I] human thrombin” value (human thrombin; [4]) was 921 ± 44 M⁻¹ s⁻¹ and the “kobs /[I] factor Xa” value (factor Xa) was 1.4 ± 0.4 M⁻¹ s⁻¹.

With Cl.NCCCCC(NC(=O)[C@@H]1CCCN1C(=O)c1ccccc1Oc1ccccc1)P(=O)(Oc1ccccc1)Oc1ccccc1 (stereo partly drawn) [2-Phenoxybenzoyl-Pro--Lys^P (OPh)2, Diphenyl 1-(N-(2-Phenoxybenzoylprolyl)amino)-5-aminopentanephosphonate Hydrochloride] the “kobs /[I] human thrombin” value (human thrombin; [5]) was 4,531 ± 140 M^-1 s^-1, the “kobs /[I] plasmin” value (plasmin) was 7.1 ± 0.2 M⁻¹ s⁻¹ and the “kobs /[I] urokinase” value (urokinase) was 0.6 ± 0.1 M⁻¹ s⁻¹. For the same molecule, the “kobs /[I] mast cell tryptase” value (mast cell tryptase) was 19 ± 1 M⁻¹ s⁻¹ and the “kobs /[I] bovine trypsin” value (bovine trypsin [2]) was 16,411 ± 460 M^-1 s^-1.

For Cl.NCCCCCC(NC(=O)[C@@H]1CCCN1C(=O)c1cccc(Oc2ccccc2)c1)P(=O)(Oc1ccccc1)Oc1ccccc1 (stereo partly drawn) [3-Phenoxybenzoyl-Pro-HomoLys^P (OPh)2, Diphenyl 1-(N-(3-Phenoxybenzoylprolyl)amino)-6-aminohexanephosphonate Hydrochloride], the “kobs /[I] human thrombin” value (human thrombin; [5]) was 27 ± 5 M⁻¹ s⁻¹, the “kobs /[I] plasmin” value (plasmin) was 4.6 ± 0.1 M⁻¹ s⁻¹ and the “kobs /[I] urokinase” value (urokinase) was 22 ± 1 M⁻¹ s⁻¹. For the same molecule, the “kobs /[I] mast cell tryptase” value (mast cell tryptase) was 10 ± 3 M⁻¹ s⁻¹ and the “kobs /[I] bovine trypsin” value (bovine trypsin [2]) was 116 ± 34 M⁻¹ s⁻¹.

For NCCCCCC(NC(=O)C1CCCN1C(=O)CNS(=O)(=O)Cc1ccccc1)P(=O)(Oc1ccccc1)Oc1ccccc1 (mixture of isomers) [PhCH2 SO2 Gly--Pro-HomoLys^P (OPh)2], the “kobs /[I] human thrombin” value (human thrombin; [5]) was 137 ± 12 M⁻¹ s⁻¹, the “kobs /[I] plasmin” value (plasmin) was 8.4 ± 0.2 M⁻¹ s⁻¹ and the “kobs /[I] urokinase” value (urokinase) was 38 ± 3 M⁻¹ s⁻¹. For the same molecule, the “kobs /[I] mast cell tryptase” value (mast cell tryptase) was 32 ± 2 M⁻¹ s⁻¹ and the “kobs /[I] bovine trypsin” value (bovine trypsin [2]) was 528 ± 59 M⁻¹ s⁻¹.

— patent publication US5952307A, “Basic α-aminoalkylphosphonate derivatives” (priority 1997, dated 1999)
